According to PMC8436250 (Nature structural & molecular biology, 2019):

Legend:
ATP-citrate lyase (ACLY) [1] = target: T1, ATP-citrate lyase (ACLY) (Homo sapiens, UniProt P53396); assay: cryo-EM structure; type: binding
T1 sequence (P53396 1-1101): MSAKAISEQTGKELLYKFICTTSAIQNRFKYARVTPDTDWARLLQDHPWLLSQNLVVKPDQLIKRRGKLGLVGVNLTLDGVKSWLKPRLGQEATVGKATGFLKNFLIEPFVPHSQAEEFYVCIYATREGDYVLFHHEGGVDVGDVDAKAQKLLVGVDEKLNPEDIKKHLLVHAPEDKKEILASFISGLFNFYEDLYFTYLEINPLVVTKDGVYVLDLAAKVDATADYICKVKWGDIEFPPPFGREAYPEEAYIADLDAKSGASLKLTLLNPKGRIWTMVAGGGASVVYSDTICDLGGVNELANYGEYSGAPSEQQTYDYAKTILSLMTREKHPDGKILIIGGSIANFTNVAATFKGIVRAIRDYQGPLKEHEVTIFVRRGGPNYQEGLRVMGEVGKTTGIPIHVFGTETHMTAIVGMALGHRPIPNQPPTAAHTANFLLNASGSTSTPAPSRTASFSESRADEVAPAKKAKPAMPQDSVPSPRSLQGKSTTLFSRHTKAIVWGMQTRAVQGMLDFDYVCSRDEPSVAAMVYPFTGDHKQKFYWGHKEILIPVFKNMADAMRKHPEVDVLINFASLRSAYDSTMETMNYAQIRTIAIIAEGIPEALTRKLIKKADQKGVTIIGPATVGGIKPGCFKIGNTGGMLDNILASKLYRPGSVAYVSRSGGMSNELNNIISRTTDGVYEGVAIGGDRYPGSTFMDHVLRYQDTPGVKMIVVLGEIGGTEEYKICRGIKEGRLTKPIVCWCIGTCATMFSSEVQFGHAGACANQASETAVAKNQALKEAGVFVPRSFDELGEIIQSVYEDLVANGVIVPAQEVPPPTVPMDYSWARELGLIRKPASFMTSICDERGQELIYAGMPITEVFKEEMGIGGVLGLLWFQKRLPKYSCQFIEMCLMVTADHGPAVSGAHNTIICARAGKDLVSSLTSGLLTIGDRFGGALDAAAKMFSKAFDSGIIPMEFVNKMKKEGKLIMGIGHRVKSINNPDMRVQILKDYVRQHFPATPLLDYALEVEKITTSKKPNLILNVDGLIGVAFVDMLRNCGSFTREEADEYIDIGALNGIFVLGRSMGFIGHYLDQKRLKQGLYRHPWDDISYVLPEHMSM

ATP-citrate lyase (ACLY) [2] = target: T1, ATP-citrate lyase (ACLY); assay: steady-state intrinsic fluorescence titration, one-site fit; type: binding
ATP-citrate lyase (ACLY) [3] = target: T1, ATP-citrate lyase (ACLY); assay: cryo-EM structure; type: binding; remark: listed apart in the source
ATP-citrate lyase (ACLY) [4] = target: T2, ATP-citrate lyase (ACLY) (Homo sapiens, UniProt P53396, E599Q); assay: cryo-EM structure; type: binding
T2 sequence (P53396 1-1101 E599Q): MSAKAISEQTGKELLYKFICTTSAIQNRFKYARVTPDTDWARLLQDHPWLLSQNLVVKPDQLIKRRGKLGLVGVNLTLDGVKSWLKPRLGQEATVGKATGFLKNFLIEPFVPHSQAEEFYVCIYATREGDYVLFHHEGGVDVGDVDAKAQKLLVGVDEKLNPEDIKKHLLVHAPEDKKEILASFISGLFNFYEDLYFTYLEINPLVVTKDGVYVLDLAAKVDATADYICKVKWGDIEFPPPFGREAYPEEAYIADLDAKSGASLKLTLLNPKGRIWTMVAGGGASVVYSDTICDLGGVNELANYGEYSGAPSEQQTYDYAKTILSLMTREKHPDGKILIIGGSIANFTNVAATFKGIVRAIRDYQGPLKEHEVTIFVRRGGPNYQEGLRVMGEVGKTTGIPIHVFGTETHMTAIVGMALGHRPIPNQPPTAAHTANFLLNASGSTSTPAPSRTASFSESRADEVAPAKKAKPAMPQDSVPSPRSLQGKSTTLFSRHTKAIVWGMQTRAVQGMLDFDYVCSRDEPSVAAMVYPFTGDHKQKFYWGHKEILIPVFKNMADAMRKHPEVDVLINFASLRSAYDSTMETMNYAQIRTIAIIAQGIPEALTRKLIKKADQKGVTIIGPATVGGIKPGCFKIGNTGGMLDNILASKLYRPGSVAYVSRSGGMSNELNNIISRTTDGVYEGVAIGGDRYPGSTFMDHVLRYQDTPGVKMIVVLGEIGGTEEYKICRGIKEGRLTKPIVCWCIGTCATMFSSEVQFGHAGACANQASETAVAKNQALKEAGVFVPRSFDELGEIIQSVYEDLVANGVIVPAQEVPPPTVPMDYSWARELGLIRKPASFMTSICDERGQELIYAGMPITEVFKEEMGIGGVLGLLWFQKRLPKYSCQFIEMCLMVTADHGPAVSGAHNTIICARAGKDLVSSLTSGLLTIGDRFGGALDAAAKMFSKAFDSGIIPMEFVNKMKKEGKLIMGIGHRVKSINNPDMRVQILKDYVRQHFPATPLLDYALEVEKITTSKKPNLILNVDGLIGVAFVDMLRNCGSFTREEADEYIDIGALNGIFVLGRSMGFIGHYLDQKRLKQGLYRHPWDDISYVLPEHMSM

ATP-citrate lyase (ACLY) [5] = target: T1, ATP-citrate lyase (ACLY); assay: cryo-EM structure; type: binding; remark: listed apart in the source
[6] = target: T3, ATP-citrate lyase (ACLY), full length human, wild type (human), P53396; assay: cryo-EM structure; conditions: remark: other sources report otherwise
T3 chain: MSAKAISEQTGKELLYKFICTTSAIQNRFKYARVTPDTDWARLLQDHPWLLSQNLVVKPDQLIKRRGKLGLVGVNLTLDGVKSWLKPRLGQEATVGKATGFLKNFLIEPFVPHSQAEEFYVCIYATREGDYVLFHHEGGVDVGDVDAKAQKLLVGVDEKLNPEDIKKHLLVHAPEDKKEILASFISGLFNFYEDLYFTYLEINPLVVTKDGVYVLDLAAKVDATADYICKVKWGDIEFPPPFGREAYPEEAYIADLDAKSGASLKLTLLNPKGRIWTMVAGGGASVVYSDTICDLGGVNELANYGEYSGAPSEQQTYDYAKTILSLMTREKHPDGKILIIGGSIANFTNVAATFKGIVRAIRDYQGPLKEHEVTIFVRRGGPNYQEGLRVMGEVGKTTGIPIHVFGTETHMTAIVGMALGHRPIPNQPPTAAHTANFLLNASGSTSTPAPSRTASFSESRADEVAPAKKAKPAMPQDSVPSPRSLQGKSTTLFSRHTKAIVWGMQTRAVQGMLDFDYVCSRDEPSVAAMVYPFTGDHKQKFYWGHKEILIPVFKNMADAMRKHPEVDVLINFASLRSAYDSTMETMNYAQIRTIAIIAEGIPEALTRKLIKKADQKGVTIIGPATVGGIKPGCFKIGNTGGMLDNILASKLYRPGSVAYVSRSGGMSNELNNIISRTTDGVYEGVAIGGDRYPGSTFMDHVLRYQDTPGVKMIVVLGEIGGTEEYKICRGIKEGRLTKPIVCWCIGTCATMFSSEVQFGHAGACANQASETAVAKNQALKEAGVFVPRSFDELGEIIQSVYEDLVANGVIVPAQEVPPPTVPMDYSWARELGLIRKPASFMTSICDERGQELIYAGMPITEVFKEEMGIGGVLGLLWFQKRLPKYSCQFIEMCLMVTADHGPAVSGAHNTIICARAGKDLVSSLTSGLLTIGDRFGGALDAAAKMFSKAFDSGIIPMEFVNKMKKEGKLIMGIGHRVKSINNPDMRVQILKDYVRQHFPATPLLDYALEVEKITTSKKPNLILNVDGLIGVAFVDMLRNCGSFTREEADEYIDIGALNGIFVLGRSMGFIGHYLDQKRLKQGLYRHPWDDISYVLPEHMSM

cryo-EM structure = target: the molecule itself; assay: cryo-EM structure

With `CC(=O)SCCNC(=O)CCNC(=O)[C@H](O)C(C)(C)COP(=O)(O)OP(=O)(O)OC[C@H]1O[C@@H](n2cnc3c(N)ncnc32)[C@H](O)[C@@H]1OP(=O)(O)O` [acetyl-CoA] the “cryo-EM structure (3.1 Å, D2) with OAA; DSF stabilization” value (ATP-citrate lyase (ACLY) [1]) was “acetyl-CoA occupied the same binding site as CoA and was also stabilized by the same basic residues, R576 and K964”.

Work on `O=C(O)CC(O)(CC(=O)O)C(=O)O` [citrate] yielded a Kd (ATP-citrate lyase (ACLY) [2]) of 3.4 ± 0.5 µM.

With `O=C(O)CC(=O)C(=O)O` [OAA, oxaloacetate] the Kd (ATP-citrate lyase (ACLY) [3]) was 15 ± 4 µM.

For `Nc1ncnc2c1ncn2[C@@H]1O[C@H](COP(=O)(O)OP(=O)(O)O)[C@@H](O)[C@H]1O` [ADP], the “cryo-EM structure (2.85 Å) of mutant mixed with ATP, citrate and CoA” value (ATP-citrate lyase (ACLY) [4]) was “ACLY-E599Q–ATP–citrate–CoA structure highlighting the bound ADP (hydrolyzed ATP) and phospho-citryl-CoA intermediate”.

In the case of `CC(C)(COP(=O)(O)OP(=O)(O)OC[C@H]1O[C@@H](n2cnc3c(N)ncnc32)[C@H](O)[C@@H]1OP(=O)(O)O)[C@@H](O)C(=O)NCCC(=O)NCCS` [CoA, Coenzyme A], the “cryo-EM structure (3.0 Å, D2)” value (ATP-citrate lyase (ACLY) [5]) is reported as “CoA binds at the interface between the CSH and ASH domains of separate subunits”.

B1: ATP-citrate lyase (ACLY), full length human, wild type, P53396 1-1101 (enzyme)
chain: MSAKAISEQTGKELLYKFICTTSAIQNRFKYARVTPDTDWARLLQDHPWLLSQNLVVKPDQLIKRRGKLGLVGVNLTLDGVKSWLKPRLGQEATVGKATGFLKNFLIEPFVPHSQAEEFYVCIYATREGDYVLFHHEGGVDVGDVDAKAQKLLVGVDEKLNPEDIKKHLLVHAPEDKKEILASFISGLFNFYEDLYFTYLEINPLVVTKDGVYVLDLAAKVDATADYICKVKWGDIEFPPPFGREAYPEEAYIADLDAKSGASLKLTLLNPKGRIWTMVAGGGASVVYSDTICDLGGVNELANYGEYSGAPSEQQTYDYAKTILSLMTREKHPDGKILIIGGSIANFTNVAATFKGIVRAIRDYQGPLKEHEVTIFVRRGGPNYQEGLRVMGEVGKTTGIPIHVFGTETHMTAIVGMALGHRPIPNQPPTAAHTANFLLNASGSTSTPAPSRTASFSESRADEVAPAKKAKPAMPQDSVPSPRSLQGKSTTLFSRHTKAIVWGMQTRAVQGMLDFDYVCSRDEPSVAAMVYPFTGDHKQKFYWGHKEILIPVFKNMADAMRKHPEVDVLINFASLRSAYDSTMETMNYAQIRTIAIIAEGIPEALTRKLIKKADQKGVTIIGPATVGGIKPGCFKIGNTGGMLDNILASKLYRPGSVAYVSRSGGMSNELNNIISRTTDGVYEGVAIGGDRYPGSTFMDHVLRYQDTPGVKMIVVLGEIGGTEEYKICRGIKEGRLTKPIVCWCIGTCATMFSSEVQFGHAGACANQASETAVAKNQALKEAGVFVPRSFDELGEIIQSVYEDLVANGVIVPAQEVPPPTVPMDYSWARELGLIRKPASFMTSICDERGQELIYAGMPITEVFKEEMGIGGVLGLLWFQKRLPKYSCQFIEMCLMVTADHGPAVSGAHNTIICARAGKDLVSSLTSGLLTIGDRFGGALDAAAKMFSKAFDSGIIPMEFVNKMKKEGKLIMGIGHRVKSINNPDMRVQILKDYVRQHFPATPLLDYALEVEKITTSKKPNLILNVDGLIGVAFVDMLRNCGSFTREEADEYIDIGALNGIFVLGRSMGFIGHYLDQKRLKQGLYRHPWDDISYVLPEHMSM
Work on B1 yielded a stoichiometry N [6] of 4.

B2: ATP-citrate lyase (ACLY) E599Q catalytic mutant, full length human (enzyme, UniProt P53396 1-1101, looked up)
chain: MSAKAISEQTGKELLYKFICTTSAIQNRFKYARVTPDTDWARLLQDHPWLLSQNLVVKPDQLIKRRGKLGLVGVNLTLDGVKSWLKPRLGQEATVGKATGFLKNFLIEPFVPHSQAEEFYVCIYATREGDYVLFHHEGGVDVGDVDAKAQKLLVGVDEKLNPEDIKKHLLVHAPEDKKEILASFISGLFNFYEDLYFTYLEINPLVVTKDGVYVLDLAAKVDATADYICKVKWGDIEFPPPFGREAYPEEAYIADLDAKSGASLKLTLLNPKGRIWTMVAGGGASVVYSDTICDLGGVNELANYGEYSGAPSEQQTYDYAKTILSLMTREKHPDGKILIIGGSIANFTNVAATFKGIVRAIRDYQGPLKEHEVTIFVRRGGPNYQEGLRVMGEVGKTTGIPIHVFGTETHMTAIVGMALGHRPIPNQPPTAAHTANFLLNASGSTSTPAPSRTASFSESRADEVAPAKKAKPAMPQDSVPSPRSLQGKSTTLFSRHTKAIVWGMQTRAVQGMLDFDYVCSRDEPSVAAMVYPFTGDHKQKFYWGHKEILIPVFKNMADAMRKHPEVDVLINFASLRSAYDSTMETMNYAQIRTIAIIAQGIPEALTRKLIKKADQKGVTIIGPATVGGIKPGCFKIGNTGGMLDNILASKLYRPGSVAYVSRSGGMSNELNNIISRTTDGVYEGVAIGGDRYPGSTFMDHVLRYQDTPGVKMIVVLGEIGGTEEYKICRGIKEGRLTKPIVCWCIGTCATMFSSEVQFGHAGACANQASETAVAKNQALKEAGVFVPRSFDELGEIIQSVYEDLVANGVIVPAQEVPPPTVPMDYSWARELGLIRKPASFMTSICDERGQELIYAGMPITEVFKEEMGIGGVLGLLWFQKRLPKYSCQFIEMCLMVTADHGPAVSGAHNTIICARAGKDLVSSLTSGLLTIGDRFGGALDAAAKMFSKAFDSGIIPMEFVNKMKKEGKLIMGIGHRVKSINNPDMRVQILKDYVRQHFPATPLLDYALEVEKITTSKKPNLILNVDGLIGVAFVDMLRNCGSFTREEADEYIDIGALNGIFVLGRSMGFIGHYLDQKRLKQGLYRHPWDDISYVLPEHMSM
B2: binds (cryo-EM structure).
